Here are results for 73 compounds from patent US20260373266A1, “PROTEIN DEGRADERS AND USES THEREOF” (KYMERA THERAPEUTICS, INC., priority 2022, published 2026).

A word on the Kd: it is the concentration at which binding is half-saturated.

T1 sequence (Q9Y4B6 1077-1390): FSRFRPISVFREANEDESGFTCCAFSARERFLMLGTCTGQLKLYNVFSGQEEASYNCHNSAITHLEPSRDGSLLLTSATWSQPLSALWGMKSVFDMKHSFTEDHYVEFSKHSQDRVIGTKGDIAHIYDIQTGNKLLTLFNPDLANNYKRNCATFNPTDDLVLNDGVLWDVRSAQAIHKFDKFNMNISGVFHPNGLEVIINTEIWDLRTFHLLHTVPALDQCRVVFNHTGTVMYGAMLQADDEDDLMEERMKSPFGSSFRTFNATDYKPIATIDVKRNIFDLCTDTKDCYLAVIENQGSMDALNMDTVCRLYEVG

This experiment concerns the target T1, DCAF1 WD40 domain (residues 1077-1390) (Homo sapiens, UniProt Q9Y4B6).
T1 construct: DCAF1 WD40 domain (residues 1077-1390)
The experiment is described as follows: DCAF1 binding assay by SPR (Biacore 8K+), DCAF1-3 KD. The conditions noted are these: 25 °C, read-out: DCAF1-3 SPR (KD). On the technique in general: Surface plasmon resonance follows binding to a sensor surface in real time, without labels.
As to `Cc1cccc(N2CCC[C@H]3[C@@H]2CCN3c2cc(N3CC4CC(C4)C3)ccn2)c1` [I-711], the Kd was in the range of 10 to 100 µM. Then `O=CNc1ccc(N2CCC[C@H]3[C@@H]2CCN3c2cc(N3CCCCC3)ccn2)cc1F` [I-762], with over 200 µM. Then `Fc1cccc(N2CCC[C@@H](Nc3cc(N4CCCCC4)cc4c3CNC4)C2)c1` [I-1050], with 10 to 100 µM; and `NC(=O)Cc1cccc(N2CCC[C@@H](Nc3cc(N4CCOCC4)ccn3)C2)c1` [I-776], with over 200 µM. The value for `NC(=O)C[C@H](NC(=O)c1cn[nH]c1-c1c(F)ccc(F)c1C(F)(F)F)c1cccc(Cl)c1` [I-793] was under 10 µM.

As for `CCNC(=O)C[C@H](NC(=O)c1cn[nH]c1-c1ccccc1F)c1cccc(Cl)c1` [I-83], the Kd lay in the range of 10 to 100 µM.

On to `NC(=O)C[C@H](NC(=O)c1cnn(CC2CCCCC2)c1-c1ccccc1F)c1cccc(Cl)c1` [I-165], for which the Kd is over 200 µM. With `Fc1cccc(N2CCC[C@@H](Nc3cccc(N4CCOCC4)c3)C2)c1` [I-380], the Kd is over 200 µM. Take `Cc1cccc(F)c1-c1c[nH]cc1C(=O)N[C@@H](CC(N)=O)c1cccc(Cl)c1` [I-592]: the dissociation constant (Kd) was under 10 µM. Then `Fc1cccc(N2CCC[C@@H](Nc3cc(C4CCNCC4)ccn3)C2)c1` [I-93], with over 200 µM; and `NC(=O)C[C@H](NC(=O)c1c[nH]nc1-c1ccccn1)c1cccc(Cl)c1` [I-202], with over 200 µM; and `c1cc(N2CCOCC2)cc(N[C@@H]2CCCN(c3nccc(N4CCCC4)n3)C2)n1` [I-678], with 10 to 100 µM. The value for `NC(=O)C[C@H](NC(=O)c1cnn(CCc2ccccc2)c1-c1ccccc1F)c1cccc(Cl)c1` [I-170] was over 200 µM; that for `COCCn1cc(C(=O)N[C@@H](CC(N)=O)c2cccc(Cl)c2)c(-c2ccccc2F)n1` [I-120] was 10 to 100 µM; that for `c1ccc2c(N3CCC[C@@H](Nc4cc(N5CCOCC5)ncn4)C3)ccnc2c1` [I-392] was over 200 µM. In the case of `NC(=O)C[C@H](NC(=O)C1=C(c2c(F)cccc2F)CCNC1)c1cccc(Cl)c1` [I-550], the Kd lay within 100 to 200 µM. Then `NC(=O)C[C@H](NC(=O)c1c[nH]nc1-c1cccc2ccnn12)c1cccc(Cl)c1` [I-236], with over 200 µM; and `Cc1c(F)ccc(F)c1-c1c(C(=O)N[C@@H](CC(N)=O)c2cccc(Cl)c2)c[nH]c1C(=O)COCCOCCOCCOCCOCCOCCN` [I-802], with under 10 µM; and `N#Cc1ccc(N2CCC[C@@H](Nc3cc(N4CCOCC4)ccn3)C2)cc1` [I-774], with over 200 µM. For the compound `CC1CC=C(c2[nH]ncc2C(=O)N[C@@H](CC(N)=O)c2cccc(Cl)c2)CC1` (stereo partly shown) [I-611], the Kd was under 10 µM. The value for `Fc1cccc(N2CCC[C@H](Nc3cc(N4CCOCC4)ncn3)C2)c1` [I-313] was over 200 µM. Then `CN(c1cc(N2CCOCC2)ncn1)[C@@H]1CCCN(c2cccc(F)c2)C1` [I-385], with over 200 µM; and `NC(=O)C[C@H](NC(=O)c1cn[nH]c1Cc1ccccc1)c1cccc(Cl)c1` [I-543], with under 10 µM. Turning to `Fc1cccc(N2CCC[C@@H](N(Cc3ccccc3)c3nccc(N4CCOCC4)n3)C2)c1` [I-34], the Kd is over 200 µM. Regarding `Cc1c(F)ccc(F)c1-c1c(C(=O)N[C@@H](CC(N)=O)c2cccc(Cl)c2)c[nH]c1C(=O)c1cccc(-c2ccccc2)c1` [I-702], the Kd is under 10 µM.

For `CCCN1CCN(c2ccnc(N[C@@H]3CCCN(c4cccc(F)c4)C3)n2)CC1` [I-317], the equilibrium dissociation constant (Kd) was over 200 µM. Regarding `NC[C@H]1CC[C@H](Nc2cc(N3CCCCC3)ccn2)CN1c1cccc(F)c1` [I-1021], the Kd fell in the range of 10 to 100 µM.

On to `O[C@@H]1CC[C@@H](Nc2cc(N3CCCCC3)ccn2)C[C@H]1c1ccccc1` [I-985], for which the Kd fell in the range of 10 to 100 µM.

For the compound `C=CC(=O)NC1CCCN(c2ccnc(N[C@@H]3CCCN(c4cccc(F)c4)C3)c2)C1` (stereo partly shown) [I-454], the Kd lay in the range of 100 to 200 µM. Then `NC(=O)C[C@H](NC(=O)c1c[nH]nc1-c1c(F)cccc1F)c1cccc(Cl)c1` [I-150], with under 10 µM; and `C=CC(=O)N1CCCC(N(C)c2ccnc(N[C@@H]3CCCN(c4cccc(F)c4)C3)c2)C1` (stereo partly shown) [I-459], with over 200 µM. Then `NC(=O)c1cccc(N2CCC[C@@H](Nc3cc(N4CCOCC4)ccn3)C2)c1` [I-775], with over 200 µM; and `NC(=O)C[C@H](NC(=O)c1cn(Cc2ccccc2)nc1-c1ccccc1F)c1cccc(Cl)c1` [I-495], with over 200 µM; and `Cc1ccccc1C(=O)c1[nH]cc(C(=O)N[C@@H](CC(N)=O)c2cccc(Cl)c2)c1-c1c(C)cccc1F` [I-626], with under 10 µM. For the compound `O=C1NCCN1Cc1cccc(N2CCC[C@@H]3[C@H]2CCN3c2cc(N3CCCCC3)ccn2)c1` [I-959], the Kd lay in the range of 10 to 100 µM. In the case of `CN1CCN(c2ccnc(N[C@@H]3CCCN(c4cccc(F)c4)C3)n2)CC1` [I-315], the Kd was over 200 µM.

Consider `O[C@@H]1CCCN(c2ccnc(N3CC[C@@H]4[C@H]3CCCN4c3cccc(F)c3)c2)C1` [I-794], for which the Kd is under 10 µM. The value for `O=C(c1cc(N2CCCCC2)ccn1)[C@H]1CCCN(c2cccc(F)c2)C1` [I-613] was 10 to 100 µM.

`Cc1c(F)ccc(F)c1-c1c(C(=O)N[C@@H](CC(N)=O)c2cccc(Cl)c2)c[nH]c1C(=O)c1ccc(CCCOCCOCCOCCOCCOCCN)cc1` [I-805]: the Kd is under 10 µM. With `c1ccc2c(N3CCC[C@@H](Nc4cncc(N5CCOCC5)c4)C3)nccc2c1` [I-364], the Kd was 10 to 100 µM. `NC(=O)[C@@H]1[C@H](Nc2cc(N3CCOCC3)ccn2)CCCN1c1cccc(F)c1` [I-278]: the Kd was over 200 µM. Consider `c1cnc2c(N3CCC[C@@H](Nc4nccc(N5CCOCC5)n4)C3)cccc2c1` [I-30], for which the Kd was 100 to 200 µM.

As for `Cc1cccc(F)c1-c1c(C(=O)N[C@@H](CC(N)=O)c2cccc(Cl)c2)c[nH]c1C(=O)c1ncccn1` [I-648], the Kd was under 10 µM. Regarding `CCc1cccc([C@@H](CC(N)=O)NC(=O)c2cn[nH]c2-c2ccccc2F)c1` [I-639], the Kd is 100 to 200 µM. For `CC(C)n1ncc(C(=O)N[C@@H](CC(N)=O)c2cccc(Cl)c2)c1-c1ccccc1F` [I-134], the Kd was 100 to 200 µM.

Regarding `Cn1ncc(C(=O)N[C@@H](CC(N)=O)c2cccc(Cl)c2)c1-c1ccccc1F` [I-172], the equilibrium dissociation constant (Kd) was over 200 µM.

For the compound `Fc1cccc([C@H]2CCC[C@@H](Nc3nccc(N4CCOCC4)n3)C2)c1` [I-181], the Kd is over 200 µM. The value for `NC(=O)C[C@H](NC(=O)c1c[nH]c(C(N)=O)c1-c1ccccc1F)c1cccc(Cl)c1` [I-599] was under 10 µM; that for `Cc1sc2c(c1C)C(c1ccc(Cl)cc1)=N[C@@H](CC(=O)NCCOCCOCCOCCOCCOCCn1ncc(C(=O)N[C@@H](CC(N)=O)c3cccc(Cl)c3)c1-c1ccccc1F)c1nnc(C)n1-2` [I-487] was over 200 µM. Then `Fc1cccc(N2CCC[C@@H](Nc3cc(N4CCOCC4)[nH]n3)C2)c1` [I-329], with over 200 µM; and `Fc1cccc([C@H]2CCC[C@@H](Nc3cc(N4CCOCC4)ccn3)C2)c1` [I-180], with over 200 µM.

`C[C@H](CC(N)=O)NC(=O)c1cn[nH]c1-c1ccccc1F` [I-132]: the Kd was over 200 µM.

With `Cc1cccc(N2CCC[C@@H](Nc3cc(N4CCOCC4)ncn3)C2)c1` [I-5], the Kd was over 200 µM. Consider `NC(=O)C[C@H](NC(=O)c1cn[nH]c1[C@H]1CCCCO1)c1cccc(Cl)c1` [I-348], for which the Kd is over 200 µM. For `Cc1ncc(N2CCOCC2)cc1N[C@@H]1CCCN(c2cccc(F)c2)C1` [I-527], the Kd is over 200 µM.

As for `Cc1sc2c(c1C)C(c1ccc(Cl)cc1)=N[C@@H](CC(=O)NCCOCCOCCOCCCc1ccc(C(=O)c3[nH]cc(C(=O)N[C@@H](CC(N)=O)c4cccc(Cl)c4)c3-c3c(F)ccc(F)c3C)cc1)c1nnc(C)n1-2` [I-908], the dissociation constant (Kd) is under 10 µM.

As for `c1ccc2c(N3CCC[C@@H](Nc4nccc(N5CCOCC5)n4)C3)nccc2c1` [I-36], the Kd fell in the range of 10 to 100 µM. For `NC(=O)C[C@H](NC(=O)c1c[nH]cc1-c1ccccc1F)c1ccccc1Cl` [I-96], the equilibrium dissociation constant (Kd) was 10 to 100 µM. Consider `NC(=O)CCc1cc(N2CCC[C@H]3[C@@H]2CCN3c2cc(N3CCCCC3)ccn2)ccc1F` [I-874], for which the Kd is under 10 µM. The value for `Cc1c(F)ccc(F)c1-c1c(C(=O)N[C@@H](CC(N)=O)c2cccc(Cl)c2)cn(C)c1C(=O)c1ccc(CN2CCC(C=O)CC2)cc1` [I-1037] was under 10 µM; that for `NC(=O)C[C@H](NC(=O)c1cn[nH]c1-c1ccccc1F)c1ccc(Cl)cc1` [I-97] was under 10 µM. Then `Fc1cccc(N2CCC[C@@H](Nc3cc([C@@H]4CCCNC4)ccn3)C2)c1` [I-109], with over 200 µM. Then `COCCc1ccc(-c2[nH]ncc2C(=O)N[C@@H](CC(N)=O)c2cccc(Cl)c2)c(F)c1` [I-511], with under 10 µM; and `C=CC(=O)Nc1ccc2c(C(=O)N[C@@H](CC(N)=O)c3cccc(Cl)c3)n[nH]c2c1` [I-301], with over 200 µM.

Turning to `CC(=O)N(c1cc(N2CCOCC2)ccn1)[C@@H]1CCCN(c2cccc(F)c2)C1` [I-271], the Kd is over 200 µM.

As for `Cc1sc2c(c1C)C(c1ccc(Cl)cc1)=N[C@@H](CC(=O)NCCOCCOCCOCCOCCn1ncc(C(=O)N[C@@H](CC(N)=O)c3cccc(Cl)c3)c1-c1ccccc1F)c1nnc(C)n1-2` [I-491], the Kd is over 200 µM. The value for `Cc1c(F)c(Cl)cc(F)c1-c1[nH]ncc1C(=O)N[C@@H](CC(N)=O)c1cccc(Cl)c1` [I-1043] was under 10 µM; that for `Cc1c(F)ccc(F)c1-c1c(C(=O)N[C@@H](CC(=O)N2CC[C@@H](O)C2)c2cccc(Cl)c2)cn(C)c1C#N` [I-1005] was under 10 µM.

For `Cc1c(F)ccc(F)c1-c1[nH]ncc1C(=O)N[C@@H](c1cccc(Cl)c1)[C@H]1CCOC1` [I-965], the Kd was 100 to 200 µM. For the compound `NC(=O)C[C@H](NC(=O)c1c[nH]nc1-c1cccc2nc[nH]c12)c1cccc(Cl)c1` [I-239], the dissociation constant (Kd) is over 200 µM. In the case of `C=CC(=O)N(C)CCCN(C)c1ccnc(N[C@@H]2CCCN(c3cccc(F)c3)C2)c1` [I-462], the Kd was 10 to 100 µM. For the compound `Fc1cccc([C@H]2CCC[C@@H](Nc3cc(N4CCOCC4)ncn3)C2)c1` [I-182], the Kd was over 200 µM. Then `Fc1cccc(N2CCC[C@@H](Nc3cc([C@H]4CCCCN4)ccn3)C2)c1` [I-126], with over 200 µM.
